Series [1] addresses histone deacetylase (HeLa nuclear extracts). The experiment in a line: In vitro assay for inhibition of histone deacetylase. It is filed as biochemical. The note with it: HeLa nuclear extracts 60 μg/ml, [3H]acetylated histone H4 peptide substrate, 30 min. Here is the method: The in vitro assay for inhibition of histone deacetylase (see example C.1) measures the inhibition of HDAC enzymatic activity obtained with the compounds of formula (I).
HeLa nuclear extracts (supplier: Biomol) were incubated at 60 μg/ml with 2×10^−8 M of radiolabeled peptide substrate. As a substrate for measuring HDAC activity a synthetic peptide, i.e. the amino acids 14-21 of histone H4, was used. The substrate is biotinylated at the NH2-terminal part with a 6-aminohexanoic acid spacer, and is protected at the COOH-terminal part by an amide group and specifically [^3H]acetylated at lysine 16. The substrate, biotin-(6-aminohexanoic)Gly-Ala-([^3H]-acetyl-Lys-Arg-His-Arg-Lys-Val-NH2), was added in a buffer containing 25 mM Hepes, 1 M sucrose, 0.1 mg/ml BSA and 0.01% Triton X-100 at pH 7.4. After 30 min the deacetylation reaction was terminated by the addition of HCl and acetic acid. (final concentration […] respectively). After stopping the reaction, the free ^3H-acetate was extracted with ethylacetate. After mixing and centrifugation, the radioactivity in an aliquot of the upper (organic) phase was counted in β-counter.
For each experiment, controls (containing HeLa nuclear extract and DMSO without compound), a blank incubation (containing DMSO but no HeLa nuclear extract or compound) and samples (containing compound dissolved in DMSO and HeLa nuclear extract) were run in parallel. In first instance, compounds were tested at a concentration of 10^−5M. […] In each test the blank value was substracted from both the control and the sample values. The control sample represented 100% of substrate deactylation. For each sample the radioactivity was expressed as a percentage of the mean value of the controls. […] Herein the effects of test compounds are expressed as pIC50 (the negative log value of the IC50-value).

Series [2] has as its system A2780 ovarian carcinoma cells. Put plainly: Antiproliferative activity on A2780 cells (MTT). It is filed as cell-based. The note with it: Homo sapiens, 96 h, four days of incubation, read-out: Cellular activity pIC50 (converted). Here is the method:
Cellular activity of the compounds of formula (I) was determined on A2780 tumour cells using a colorimetric assay for cell toxicity or survival (Mosmann Tim, Journal of Immunological Methods 65: 55-63, 1983)(see example C.2).
All compounds tested were dissolved in DMSO and further dilutions were made in culture medium. Final DMSO concentrations never exceeded 0.1% (v/v) in cell proliferation assays. Controls contained A2780 cells and DMSO without compound and blanks contained DMSO but no cells. MTT was dissolved at 5 mg/ml in PBS. A glycine buffer comprised of 0.1 M glycine and 0.1 M NaCl buffered to pH 10.5 with NaOH (1 N) was prepared (all reagents were from Merck).
The human A2780 ovarian carcinoma cells (a kind gift from Dr. T. C. Hamilton [Fox Chase Cancer Centre, Pennsylvania, USA]) were cultured in RPMI 1640 medium supplemented with 2 mM L-glutamine, 50 μg/ml gentamicin and 10% fetal calf serum. Cells were routinely kept as monolayer cultures at 37° C. in a humidified 5% CO2 atmosphere. Cells were passaged once a week using a trypsin/EDTA solution at a split ratio of 1:40. All media and supplements were obtained from Life Technologies. Cells were free of mycoplasma contamination as determined using the Gen-Probe Mycoplasma Tissue Culture kit (supplier: BioMérieux).
Cells were seeded in NUNC™ 96-well culture plates (Supplier: Life Technologies) and allowed to adhere to the plastic overnight. Densities used for plating were 1500 cells per well in a total volume of 200 μl medium. After cell adhesion to the plates, medium was changed and drugs and/or solvents were added to a final volume of 200 μl. Following four days of incubation, medium was replaced by 200 μl fresh medium and cell density and viability was assessed using an […] assay. To each well, 25 μl μl MTT solution was added and the cells were further incubated for 2 hours at 37° C. The medium was then carefully aspirated and the blue MT-formazan product was solubilized by addition of 25 μl glycine buffer followed by 100 μl of DMSO. […] Within an experiment, the results for each experimental condition are the mean of 3 replicate wells. For initial screening purposes, compounds were tested at a single fixed concentration of 10^−6 M. For active compounds, the experiments were repeated to establish full concentration-response curves. For each experiment, controls (containing no drug) and a blank incubation (containing no cells or drugs) were run in parallel. The blank value was subtracted from all control and sample values. For each sample, the mean value for cell growth (in absorbance units) was expressed as a percentage of the mean value for cell growth of the control. […] Herein the effects of test compounds are expressed as pIC50 (the negative log value of the IC50-value).

This note sets out measurements from patent US7767679B2, “Sulfonylamino-derivatives as novel inhibitors of histone deacetylase” (Janssen Pharmaceutica N.V., priority 2002, dated 2010).

Structures are written as SMILES.

`O=C(NO)c1cnc(N2CCN(CCCNS(=O)(=O)c3ccc4ccccc4c3)CC2)nc1` (hydrate or solvate) [Co. No. 26]: the melting point (usually the temperature of the solid-liquid transition) turned out to be 115 °C.

For `O=C(NO)c1ccc(N2CCC(NS(=O)(=O)c3ccc4ccccc4c3)CC2)cc1` [Co. No. 1], the “Enzyme activity pIC50” value in series [1] was found to be 6.523. Also, the IC50 in series [2] is 5280 nM.

As for `O=C(Nc1ccc(N2CCC(NS(=O)(=O)c3ccc(-c4ccccc4)cc3)CC2)cc1)/C(Cc1ccccc1)=N/O` [Co. No. 3], the melting point turned out to be 262 °C. In addition, the “Enzyme activity pIC50” value in series [1] is on record as <5. The IC50 in series [2] was 1800 nM.

Turning to `O=C(NO)c1cnc(N2CCC(NS(=O)(=O)c3ccc4ccccc4c3)CC2)nc1N1CCN(S(=O)(=O)c2ccc3ccccc3c2)CC1` [Co. No. 6], the melting point amounted to 80 °C. The “Enzyme activity pIC50” value in series [1] is on record as <5. Also, the IC50 in series [2] was 2090 nM.

Compound `O=C(NO)c1ccc(N2CCCC(NS(=O)(=O)c3ccc4ccccc4c3)CC2)nc1` (stereo not drawn) [Co. No. 10] gave a melting point of 142 °C. For the same compound, the “Enzyme activity pIC50” value in series [1] was 6.893. The IC50 in series [2] was 2120 nM.

`O=C(NO)c1cnc(N2CCC(NS(=O)(=O)N3CCOCC3)CC2)nc1` [Co. No. 25] had a melting point of 217 °C. Further, in series [1], the “Enzyme activity pIC50” value turned out to be 6.449. The IC50 in series [2] is > 10000 nM.

Turning to `O=C(NO)c1cnc(N2CCN(CCCNS(=O)(=O)c3ccc4ccccc4c3)CC2)nc1` [Co. No. 26], the “Enzyme activity pIC50” value in series [1] is recorded as 7.85. Also, the IC50 in series [2] was 546 nM.

The compound `CN(C1CCN(c2ncc(C(=O)NO)cn2)C1)S(=O)(=O)c1ccc2ccccc2c1` (stereo not drawn) [Co. No. 27] registered a melting point of 158 °C. In series [1], the “Enzyme activity pIC50” value was 7.49. Besides, the IC50 in series [2] was 1660 nM.

Compound `O=C(NO)c1cnc(N2CCC(CNS(=O)(=O)N3CCOCC3)CC2)nc1` [Co. No. 28] showed a melting point of 217 °C. Further, the “Enzyme activity pIC50” value in series [1] worked out at 7.074. Further, the IC50 in series [2] is 7780 nM.

As to `CS(=O)(=O)c1ccc(-c2ccccc2S(=O)(=O)NCC2CCN(c3ncc(C(=O)NO)cn3)CC2)cc1` [Co. No. 30], in series [1], the “Enzyme activity pIC50” value was determined as 7.614. Further, the IC50 in series [2] was 2140 nM.

With `Cc1cc(C(=O)NO)ccc1N1CCC(NS(=O)(=O)c2ccc3ccccc3c2)CC1` [compound 11], the “Enzyme activity pIC50” value in series [1] was determined as 5.829. The IC50 in series [2] was 1640 nM.

For the compound `O=C(NO)c1ccc(N2CCC(NS(=O)(=O)c3ccc4ccccc4c3)CC2)nc1` [compound 12], the “Enzyme activity pIC50” value in series [1] is reported as 7.438. For the same compound, the IC50 in series [2] is 2910 nM.

Regarding `Cc1cc(C(=O)NO)ccc1N1CCC(NS(=O)(=O)c2ccc(-c3ccccc3)cc2)CC1` [compound 13], in series [1], the “Enzyme activity pIC50” value is recorded as 5.428. Further, the IC50 in series [2] is 698 nM.

On to `O=C(NO)c1ccc(N2CCC(NS(=O)(=O)c3ccc(-c4ccccc4)cc3)CC2)cc1` [compound 14], for which the “Enzyme activity pIC50” value in series [1] worked out at 6.116. Also, in series [2], the IC50 was 2090 nM.

As for `O=C(NO)c1ccc(N2CCC(NS(=O)(=O)c3ccc4ccccc4c3)C2)cc1` (stereo not drawn) [compound 16], the “Enzyme activity pIC50” value in series [1] was 6.293. Also, the IC50 in series [2] is > 10000 nM.

Turning to `O=C(NO)c1ccc(N2CCC(NS(=O)(=O)c3ccc4ccccc4c3)C2)nc1` (stereo not drawn) [compound 17], the “Enzyme activity pIC50” value in series [1] worked out at 6.95. Also, in series [2], the IC50 is > 10000 nM.

On to `O=C(NO)c1ccc(N2CCC(NS(=O)(=O)c3ccc(-c4ccccc4)cc3)C2)nc1` (stereo not drawn) [compound 18], for which the “Enzyme activity pIC50” value in series [1] was found to be 5.321. For the same compound, the IC50 in series [2] was 49.8 nM.

For the compound `O=C(Nc1ccc(N2CCC(NS(=O)(=O)c3ccc4ccccc4c3)CC2)cc1)/C(Cc1ccccc1)=N/O` [compound 19], the “Enzyme activity pIC50” value in series [1] is reported as <5. Further, the IC50 in series [2] is 4300 nM.

`O=C(NO)c1cnc(N2CCC(CNS(=O)(=O)c3ccc(-c4ccccc4)cc3)CC2)nc1` [compound 21]: in series [1], the “Enzyme activity pIC50” value is 8.199. The IC50 in series [2] is 362 nM.

For the compound `CO[C@@H]1CN(c2ncc(C(=O)NO)cn2)CC[C@@H]1NS(=O)(=O)c1ccc2ccccc2c1` [compound 23], in series [1], the “Enzyme activity pIC50” value was 6.662. Moreover, in series [2], the IC50 is 3370 nM.

In the case of `O=C(NO)c1cnc(N2CCCC(NS(=O)(=O)c3ccc4ccccc4c3)CC2)nc1` (stereo not drawn) [compound 24], the “Enzyme activity pIC50” value in series [1] is given as 7.903. For the same compound, the IC50 in series [2] is 1070 nM.

As for `O=C(NO)c1cnc(N2CCC(NS(=O)(=O)c3ccc4ccccc4c3)C2)nc1` (stereo not drawn) [compound 31], the “Enzyme activity pIC50” value in series [1] is reported as 7.857. Moreover, in series [2], the IC50 was 5960 nM.

As to `O=C(NO)c1cnc(N2CCN(CCNS(=O)(=O)c3ccc4ccccc4c3)CC2)nc1` [compound 32], in series [1], the “Enzyme activity pIC50” value is 7.526. Besides, the IC50 in series [2] is 556 nM.

Regarding `O=C(NO)c1cnc(N2CCC(N(CCO)S(=O)(=O)c3ccc4ccccc4c3)CC2)nc1` [compound 34], in series [1], the “Enzyme activity pIC50” value is recorded as 7.337. In addition, the IC50 in series [2] was 2400 nM.

`COCCN(C1CCN(c2ncc(C(=O)NO)cn2)CC1)S(=O)(=O)c1ccc2ccccc2c1` [compound 35]: in series [1], the “Enzyme activity pIC50” value stood at 7.046. Also, the IC50 in series [2] is 1160 nM.

With `O=C(NO)c1cnc(N2CCC(CNS(=O)(=O)c3ccccc3-c3ccc(CO)cc3)CC2)nc1` [compound 36], the “Enzyme activity pIC50” value in series [1] came out at 7.265. In addition, in series [2], the IC50 was 1050 nM.

As to `O=C(NO)c1cnc(N2CCC(CNS(=O)(=O)c3ccccc3-c3cccc(CO)c3)CC2)nc1` [compound 37], the “Enzyme activity pIC50” value in series [1] worked out at 7.341. The IC50 in series [2] was 2180 nM.

On to `O=C(NO)c1cnc(N2CCC(CNS(=O)(=O)c3ccccc3-c3ccoc3)CC2)nc1` [compound 38], for which the “Enzyme activity pIC50” value in series [1] turned out to be 7.154. For the same compound, the IC50 in series [2] is 1160 nM.

With `Cc1cccc(-c2ccccc2S(=O)(=O)NCC2CCN(c3ncc(C(=O)NO)cn3)CC2)c1` [compound 39], the “Enzyme activity pIC50” value in series [1] was found to be 7.126. Also, the IC50 in series [2] is 885 nM.

For the compound `O=C(NO)c1cnc(N2CCC(CNS(=O)(=O)c3ccccc3-c3ccsc3)CC2)nc1` [compound 40], the “Enzyme activity pIC50” value in series [1] is given as 7.273. The IC50 in series [2] was 685 nM.

Consider `Cc1ccccc1-c1ccccc1S(=O)(=O)NCC1CCN(c2ncc(C(=O)NO)cn2)CC1` [compound 41], for which, in series [1], the “Enzyme activity pIC50” value stood at 7.403. Also, the IC50 in series [2] is 471 nM.

On to `COc1cccc(-c2ccccc2S(=O)(=O)NCC2CCN(c3ncc(C(=O)NO)cn3)CC2)c1` [compound 42], for which the “Enzyme activity pIC50” value in series [1] is given as 7.584. Moreover, the IC50 in series [2] is 455 nM.

Regarding `O=C(NO)c1cnc(N2CCC(CNS(=O)(=O)c3ccccc3-c3cc4ccccc4o3)CC2)nc1` [compound 43], the “Enzyme activity pIC50” value in series [1] is given as 7.469. Also, in series [2], the IC50 is 738 nM.

As for `CN(C)c1ccc(-c2ccccc2S(=O)(=O)NCC2CCN(c3ncc(C(=O)NO)cn3)CC2)cc1` [compound 44], in series [1], the “Enzyme activity pIC50” value stood at 7.432. Moreover, the IC50 in series [2] is 643 nM.

Turning to `COc1ccc(-c2ccccc2S(=O)(=O)NCC2CCN(c3ncc(C(=O)NO)cn3)CC2)cc1` [compound 45], the “Enzyme activity pIC50” value in series [1] was 7.371. For the same compound, in series [2], the IC50 was 513 nM.
